Test results reported in PMC9683054, “Synthesis of N-(4-chlorophenyl) substituted pyrano[2,3-c]pyrazoles enabling PKBβ/AKT2 inhibitory and in vitro anti-glioma activity” (Annals of Medicine, 2022).

Columns and labels:
AKT1/PKBα = molecular target: T1, AKT1/PKBα (Homo sapiens, UniProt P31749, S473D); assay: […]-γ-ATP radiometric kinase assay with purified kinase and Crosstide peptide; format: biochemical
T1 construct: ΔPH-PKBα-S473D

AKT2/PKBβ = molecular target: T2, AKT2/PKBβ (Homo sapiens, UniProt P31751, S474D); assay: as above; format: biochemical
T2 construct: ΔPH-PKBβ-S474D
T2 sequence (P31751 119-481 S474D limits assumed): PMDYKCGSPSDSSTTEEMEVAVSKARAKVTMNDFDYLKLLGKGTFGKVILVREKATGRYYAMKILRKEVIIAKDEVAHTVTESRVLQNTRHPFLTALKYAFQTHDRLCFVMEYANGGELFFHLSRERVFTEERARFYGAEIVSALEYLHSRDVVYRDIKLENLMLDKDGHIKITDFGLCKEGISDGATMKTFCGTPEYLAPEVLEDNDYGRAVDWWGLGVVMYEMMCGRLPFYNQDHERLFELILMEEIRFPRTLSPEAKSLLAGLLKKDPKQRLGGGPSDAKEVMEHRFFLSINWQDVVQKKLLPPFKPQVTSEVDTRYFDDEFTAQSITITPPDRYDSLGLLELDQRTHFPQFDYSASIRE

T1 sequence (P31749 118-480 S473D limits assumed): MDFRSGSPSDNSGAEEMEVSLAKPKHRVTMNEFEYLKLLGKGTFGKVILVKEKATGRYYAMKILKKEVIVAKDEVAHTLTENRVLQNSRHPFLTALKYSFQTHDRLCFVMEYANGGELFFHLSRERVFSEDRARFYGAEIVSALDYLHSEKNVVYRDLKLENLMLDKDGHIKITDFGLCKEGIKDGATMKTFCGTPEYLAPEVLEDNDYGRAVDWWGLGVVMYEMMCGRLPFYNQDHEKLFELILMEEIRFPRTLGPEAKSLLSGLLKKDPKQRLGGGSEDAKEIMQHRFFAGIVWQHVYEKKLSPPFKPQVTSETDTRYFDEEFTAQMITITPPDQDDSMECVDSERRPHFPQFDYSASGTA

- IC50 (AKT1/PKBα): 14 µM
- IC50 (AKT2/PKBβ): 12 µM
SMILES: Cc1nn(-c2ccc(Cl)cc2)c2c1C(c1ccc(-c3ccccc3)cc1)C(C#N)=C(N)O2 (centres unmarked) [4j, 6-Amino-4-(biphenyl-4-yl)-1-(4-chlorophenyl)-3-methyl-1,4-dihydropyrano[2,3-c]pyrazole-5-carbonitrile]
